According to PubChem BioAssay (NCI):
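1) Cells in 96-well plates. 2) Compound, 48 h, 5 concentrations. 3) Linear interpolation between surrounding doses. 4) Unreached endpoint = highest concentration. GI50: concentration for 50% inhibition of growth. TGI denotes the concentration required for complete inhibition of growth.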

Key:
Test in all cases: NCI tumour cell line growth inhibition, 48 h
786-0 renal = test system: 786-0 renal
A498 renal = test system: A498 renal
A549 NSCLC = test system: A549 NSCLC
ACHN renal = test system: ACHN renal
BT-549 breast = test system: BT-549 breast
CAKI-1 renal = test system: CAKI-1 renal
CCRF-CEM leukemia = test system: CCRF-CEM leukemia
COLO 205 colon = test system: COLO 205 colon
DU-145 prostate = test system: DU-145 prostate
EKVX NSCLC = test system: EKVX NSCLC
HCC-2998 colon = test system: HCC-2998 colon
HCT-116 colon = test system: HCT-116 colon
HCT-15 colon = test system: HCT-15 colon
HL-60(TB) leukemia = test system: HL-60(TB) leukemia
HOP-62 NSCLC = test system: HOP-62 NSCLC
HOP-92 NSCLC = test system: HOP-92 NSCLC
HS 578T breast = test system: HS 578T breast
HT29 colon = test system: HT29 colon
IGROV1 ovarian = test system: IGROV1 ovarian
K-562 leukemia = test system: K-562 leukemia
KM12 colon = test system: KM12 colon
LOX IMVI melanoma = test system: LOX IMVI melanoma
M14 melanoma = test system: M14 melanoma
MALME-3M melanoma = test system: MALME-3M melanoma
MCF7 breast = test system: MCF7 breast
MDA-MB-231 breast = test system: MDA-MB-231 breast
MDA-MB-435 = test system: MDA-MB-435
MOLT-4 leukemia = test system: MOLT-4 leukemia
NCI-H226 lung = test system: NCI-H226 lung
NCI-H23 lung = test system: NCI-H23 lung
NCI-H460 lung = test system: NCI-H460 lung
NCI-H522 lung = test system: NCI-H522 lung
NCI/ADR-RES ovarian = test system: NCI/ADR-RES ovarian
OVCAR-3 ovarian = test system: OVCAR-3 ovarian
OVCAR-4 ovarian = test system: OVCAR-4 ovarian
OVCAR-5 ovarian = test system: OVCAR-5 ovarian
OVCAR-8 ovarian = test system: OVCAR-8 ovarian
PC-3 prostate = test system: PC-3 prostate
RPMI-8226 leukemia = test system: RPMI-8226 leukemia
RXF 393 renal = test system: RXF 393 renal
SF-268 CNS = test system: SF-268 CNS
SF-295 CNS = test system: SF-295 CNS
SF-539 CNS = test system: SF-539 CNS
SK-MEL-2 melanoma = test system: SK-MEL-2 melanoma
SK-MEL-28 melanoma = test system: SK-MEL-28 melanoma
SK-MEL-5 melanoma = test system: SK-MEL-5 melanoma
SK-OV-3 ovarian = test system: SK-OV-3 ovarian
SN12C renal = test system: SN12C renal
SNB-19 CNS = test system: SNB-19 CNS
SNB-75 CNS = test system: SNB-75 CNS
SR leukemia = test system: SR leukemia
SW-620 colon = test system: SW-620 colon
T-47D breast = test system: T-47D breast
TK-10 renal = test system: TK-10 renal
U251 CNS = test system: U251 CNS
UACC-257 melanoma = test system: UACC-257 melanoma
UACC-62 melanoma = test system: UACC-62 melanoma
UO-31 renal = test system: UO-31 renal

## COC(=O)CCC1=C(C)C(C)=N/C1=C\c1[nH]c(-c2ccc[nH]2)cc1OC
786-0 renal
  GI50: 0.456 µM
  TGI: 2.95 µM
A498 renal
  GI50: 3.35 µM
  TGI: 15.8 µM
A549 NSCLC
  GI50: 0.368 µM
  TGI: 10.2 µM
ACHN renal
  GI50: 0.41 µM
  TGI: 2.76 µM
BT-549 breast
  GI50: 0.621 µM
  TGI: 13.4 µM
CAKI-1 renal
  GI50: 0.338 µM
  TGI: 6.36 µM
CCRF-CEM leukemia
  GI50: 0.403 µM
  TGI: 13.6 µM
COLO 205 colon
  GI50: 0.394 µM
  TGI: 1.48 µM
DU-145 prostate
  GI50: 0.88 µM
  TGI: 14.9 µM
EKVX NSCLC
  GI50: 0.712 µM
  TGI: 14.3 µM
HCC-2998 colon
  GI50: 0.464 µM
  TGI: 14.6 µM
HCT-116 colon
  GI50: 0.326 µM
  TGI: 1.26 µM
HCT-15 colon
  GI50: 0.262 µM
  TGI: 3.15 µM
HL-60(TB) leukemia
  GI50: 0.567 µM
  TGI: 3.34 µM
HOP-62 NSCLC
  GI50: 0.471 µM
  TGI: 1.72 µM
HOP-92 NSCLC
  GI50: 0.211 µM
  TGI: 0.649 µM
HS 578T breast
  GI50: 1.06 µM
  TGI: 8.15 µM
HT29 colon
  GI50: 0.277 µM
  TGI: 3.85 µM
IGROV1 ovarian
  GI50: 1.06 µM
  TGI: 17.4 µM
K-562 leukemia
  GI50: 0.462 µM
  TGI: 24.2 µM
KM12 colon
  GI50: 0.393 µM
  TGI: 6.39 µM
LOX IMVI melanoma
  GI50: 0.221 µM
  TGI: 0.609 µM
M14 melanoma
  GI50: 0.548 µM
  TGI: 12.2 µM
MALME-3M melanoma
  GI50: 2.01 µM
  TGI: 7.09 µM
MCF7 breast
  GI50: 0.297 µM
  TGI: 2.79 µM
MDA-MB-231 breast
  GI50: 0.228 µM
  TGI: 2.09 µM
MDA-MB-435
  GI50: 0.472 µM
  TGI: 5.34 µM
MOLT-4 leukemia
  GI50: 0.567 µM
  TGI: 16.4 µM
NCI-H226 lung
  GI50: 0.313 µM
  TGI: 1.8 µM
NCI-H23 lung
  GI50: 0.805 µM
  TGI: 11.4 µM
NCI-H460 lung
  GI50: 0.49 µM
  TGI: 12.1 µM
NCI-H522 lung
  GI50: 0.515 µM
  TGI: 1.91 µM
NCI/ADR-RES ovarian
  GI50: 0.476 µM
  TGI: 13.2 µM
OVCAR-3 ovarian
  GI50: 0.478 µM
  TGI: 2.41 µM
OVCAR-4 ovarian
  GI50: 0.371 µM
  TGI: 7.46 µM
OVCAR-5 ovarian
  GI50: 0.49 µM
  TGI: 12.2 µM
OVCAR-8 ovarian
  GI50: 0.334 µM
  TGI: 12.4 µM
PC-3 prostate
  GI50: 0.633 µM
  TGI: 14.4 µM
RPMI-8226 leukemia
  GI50: 0.356 µM
  TGI: 1.92 µM
RXF 393 renal
  GI50: 0.242 µM
  TGI: 1.06 µM
SF-268 CNS
  GI50: 0.935 µM
  TGI: 16.2 µM
SF-295 CNS
  GI50: 0.724 µM
  TGI: 4.28 µM
SF-539 CNS
  GI50: 0.639 µM
  TGI: 6.38 µM
SK-MEL-2 melanoma
  GI50: 0.363 µM
  TGI: 1.21 µM
SK-MEL-28 melanoma
  GI50: 1.85 µM
  TGI: 8.47 µM
SK-MEL-5 melanoma
  GI50: 0.145 µM
  TGI: 0.315 µM
SK-OV-3 ovarian
  GI50: 2.82 µM
  TGI: 15.9 µM
SN12C renal
  GI50: 0.805 µM
  TGI: 14.3 µM
SNB-19 CNS
  GI50: 1.89 µM
  TGI: 17 µM
SNB-75 CNS
  GI50: 0.434 µM
  TGI: 3.62 µM
SR leukemia
  GI50: 0.352 µM
SW-620 colon
  GI50: 0.385 µM
  TGI: 11.9 µM
T-47D breast
  GI50: 0.329 µM
  TGI: 3.42 µM
TK-10 renal
  GI50: 0.93 µM
  TGI: 10.1 µM
U251 CNS
  GI50: 0.419 µM
  TGI: 2.87 µM
UACC-257 melanoma
  GI50: 1.44 µM
  TGI: 9.86 µM
UACC-62 melanoma
  GI50: 0.365 µM
  TGI: 1.26 µM
UO-31 renal
  GI50: 0.479 µM
  TGI: 2.55 µM
